Values belong to the molecule of their own block, whether it stands above or below them.
Key:
AKSP CRC tumoroid line = experiment: 3D CRC tumoroid viability, AKSP model; format: cell-based, mice; conditions: at 5.0 μM, viability after 72 hours
Experimental: To model different stages of colorectal cancer (CRC), intestinal organoids were derived from genetically engineered mice with the following genotypes Apc^flx/flx (A) and Apc^flx/flx Kra^LSL-G12D Smad4^flx/flx (AKS) and transformed ex vivo by addition of 100 nM 4-OHT for 24 hours. Once the organoids acquired a spheroid morphology characteristic of CRC Tumoroids, trp53 was knocked out in AKS tumoroids using CRISPR-CAS9 technology to generate the AKSP line. CRC tumoroid lines as well as wild type intestinal organoids were seeded onto Matrigel in 96 well plates in triplicates 16 hours before being treated with the indicated compounds at a final concentration of 0.5 μM. 72 hours later, cell viability was assessed using Titerglo® assay. Results of 3D CRC organoid line data for pyrazolo- and pyrrolopyrimidine compounds at 0.5 μm were obtained (FIGS. 25A-G). […] In the AKSP model, at 5.0 μM, the top ten compounds were: APS-8-35-3, APS-8-35-4, APS-6-87, APS-9-3, AD80, APS-8-85-2, APS-8-51-3, APS-9-2, and APS-8-56-4.

RET (WT and M918T) = experiment: NanoBRET cell based target engagement assay; conditions: RET-Nluc in HEK 293T cells; for cellular IC50 against RET, ranking in words: pyrazolo- and pyrrolopyrimidine series
Experimental: Assays were completed in duplicate. […] FIG. 8D is a graph of the cell-based target engagement for the indicated compounds against wild-type and M918T RET. IC50 values were determined based on 8-point titration curves of free ligand. Competition assays were completed in technical triplicate against full-length human RET-Nluc expressed in 293T cells, complexed with an active-site fluorescent tracer.
In this assay, a bioluminescence resonance energy transfer (BRET) signal is generated between nanoLuciferase tagged RET (expressed in HEK 293T cells) and an active-site based fluorescent tracer. […] Using this assay, in vivo binding was determined for a series of compounds against mutant (M918T) and wild-type RET (FIG. 8D).

ptc>dRet^M955T flies = experiment: Fly rescue assay (Drosophila MTC model ptc>dRet^M955T); format: in vivo; conditions: compound in fly food; for rescue (percent viability of adult flies, adults/pupae×100): 13 d at 25° C., baseline viability 0%
Experimental: Kinase-mutated fly stocks were obtained from Bloomington Drosophila Stock Center (BDSC; Bloomington, IN). The active mutant form of Drosophila Ret (dRet^955T) carries an M955T mutation corresponding to the M918T mutation commonly reported for multiple endocrine neoplasia (MEN) type 2B patients12,14,16,34. The ptc-gal4, UAS-GFP;UAS-dRet^M955T/SM5tub-gal80-TM6B transgenic flies were prepared according to standard protocols and crossed with non-transgenic w-flies (BDSC) to generate ptc-gal4, UAS-GFP; UAS-dRet^M955T(ptc>dRet^M955T) flies for chemical screening.
All drugs were synthesized in-house. All compounds were dissolved in DMSO (Sigma-Aldrich; St. Louis, MO) and mixed with semi-defined fly medium (BDSC) to make drug food (0.1% final DMSO concentration). For drug screening, ptc>dRet^M955T embryos were raised until adulthood on drug food for 13 d at 25° C. The number of empty pupal cases (i.e., adults) ? that of total pupal cases (P) to determine % viability. Fly randomization was used throughout the assays.
In this model, compounds are assessed based on their ability to suppress oncogenic Ret^M955T-induced tumors, which can be quantified as ‘rescue’ from lethality. […] The baseline viability of ptc>Ret^1955T flies was calibrated to zero, which creates a high bar for rescue but also reduces false-positive hits. Hundreds of flies are tested per condition (typical n values are […] administered through fly food.

[1] = tested on: HCC tumor organoids, SR (sorafenib resistant); experiment: 3D HCC tumor organoid viability, SR model; format: cell-based; conditions: 5.0 μM, viability three days post drug administration
Experimental: (§1) For assays in HCC tumor organoids, 96 well plates were first coated with a 50:50 solution of basal media:Matrigel ([…]), which polymerized for 15 minutes at 37° C. Tumor organoids were taken out of Matrigel, broken, and washed. Tumor organoids were seeded at 1,000 cells per well and were treated the following day with single doses of drugs in technical triplicate. Final DMSO concentrations were kept below 0.5%. Cell viability was measured three days post drug administration with either luminescence from CellTiter-Glo or absorbance at 560 and 590 nm from resazurin. Viability data was analyzed by normalizing individual drug-treated well values to DMSO-treated wells (BC=B-Catenin; SR=sorafenib resistant). Results of 3D HCC cell line data for pyrazolo- and pyrrolopyrimidine compounds at 0.5 μm (FIGS. 22A-F), 0.05 μm (FIGS. 23A-F), and 5.0 μm (FIGS. 24A-F) were obtained. […] In the BC model, at 5.0 μM, the top ten compounds were: APS-8-100-4, APS-8-52-3, APS-8-51-4, APS-7-25-2, APS-8-100-3, APS-8-51-3, APS-8-50-4, APS-8-52-4, and APS-7-38. In the SR model, at 5.0 μM, the top ten compounds were: APS-8-51-3, APS-8-50-4, APS-8-51-4, APS-8-52-3, APS-8-50-3, APS-7-52-2, APS-8-52-4, APS-7-52-1, and APS-8-100-4.

[2] = tested on: HCC tumor organoids, BC (B-Catenin); experiment: 3D HCC tumor organoid viability, BC model; format: cell-based; conditions: 5.0 μM, viability three days post drug administration
Experimental: as §1

[3] = target: T1, wild-type RET kinase domain (Homo sapiens, UniProt P07949); experiment: Wild-type RET Kd, bead based competition assay (KINOMEscan, DiscoverX); format: binding; conditions: recombinant human wild-type RET kinase domain, average of two replicates; read-out: Kd towards wild-type RET
T1 construct: determined against recombinant-human, wild-type RET kinase domain; phage display fusion (kinase expressed on phage); purchased DiscoverX (Fremont, CA); host or cells: phage
T1 sequence (P07949 724-1016 limits assumed): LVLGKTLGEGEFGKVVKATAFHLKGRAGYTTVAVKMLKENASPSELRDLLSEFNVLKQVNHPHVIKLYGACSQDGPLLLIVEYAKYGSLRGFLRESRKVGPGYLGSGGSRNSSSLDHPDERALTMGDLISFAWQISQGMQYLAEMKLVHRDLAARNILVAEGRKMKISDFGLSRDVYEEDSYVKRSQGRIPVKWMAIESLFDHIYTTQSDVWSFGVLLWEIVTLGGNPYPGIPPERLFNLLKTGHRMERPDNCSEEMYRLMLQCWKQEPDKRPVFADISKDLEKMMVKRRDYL
Experimental: Wild-type RET Kd values were determined by DiscoverX (Fremont, CA) using a bead based competition assay (KINOMEscan). In brief, kinases are expressed on phage and immobilized on beads via active site-directed ligands. Test compounds are premixed with kinases and assayed for the ability to compete for immobilized ligands. Binding constants are calculated with a standard dose-response curve and the Hill equation, with Hill slope set to −1. […] Kd values are the average of two experimental replicates.
To assess if the differences in activity between R^F- and R^H-analogs were related to alterations in target engagement, representative analogs for binding on wild-type RET were compared. For this KD values of compounds 40 (para-C2F5) and 50 (para-C2H5) were determined against recombinant-human, wild-type RET kinase domain.

[4] = tested on: panel of 468 purified human kinases; experiment: In vitro kinase percent inhibition, panel of 468 kinases (DiscoverX); format: binding; conditions: 1 μM; for binding to wild-type RET and RET^M918T, in words: kinase panel
Experimental: Compounds were assayed against a panel of 468 purified human kinases (DiscoverX) to measure percentage inhibition values and derive kinome profiles (FIGS. 3B-3C). All compounds were screened at 1 μM, using two experimental replicates to determine percent inhibition values. Detailed procedures for kinase reactions and assay formats are described at http://www.discoverx.com. Raw data sets for individual compounds were filtered based on the variance of experimental replicates (cutoff=average variance+standard deviation).

Structure (SMILES): CC(C)n1cc(-c2ccc(NC(=O)Nc3cc(C(F)(C(F)(F)F)C(F)(F)C(F)(F)F)ccc3F)cc2)c2c(N)ncnc21 (stereo not drawn) [APS-8-35-4, 1-(4-(4-Amino-7-isopropyl-7H-pyrrolo[2,3-d]pyrimidin-5-yl)phenyl)-3-(2-fluoro-5-(perfluorobutan-2-yl)phenyl)urea 2,2,2-trifluoroacetate]
ranking by inhibition of cell proliferation, AKSP model (AKSP CRC tumoroid line): top ten

Structure (SMILES): CC(C)n1nc(-c2ccc(NC(=O)Nc3cc(C(F)(F)F)ccc3F)cc2)c2c(N)ncnc21 [AD80, 1-(4-(4-amino-1-isopropyl-1H-pyrazolo[3,4-d]pyrimidin-3-yl)phenyl)-3-(2-fluoro-5-(trifluoromethyl)phenyl)urea, reference compound]
cellular IC50 wild-type RET versus M918T mutant, in words (RET (WT and M918T)): slightly lower IC50 value for wild-type RET over mutant
rescue (percent viability of adult flies, adults/pupae×100) (ptc>dRet^M955T flies): 80%
ranking by inhibition of cell proliferation, AKSP model (AKSP CRC tumoroid line): top ten

Structure (SMILES): CC(C)n1cc(-c2ccc(NC(=O)Nc3ccc(C(F)(F)C(F)(F)C(F)(F)F)cc3)cc2)c2c(N)ncnc21.O=C(O)C(F)(F)F [APS-8-51-4, 1-(4-(4-Amino-7-isopropyl-7H-pyrrolo[2,3-d]pyrimidin-5-yl)phenyl)-3-(4-(perfluoropropyl)phenyl)urea 2,2,2-trifluoroacetate]
ranking by inhibition of cell proliferation, SR model [1]: top ten
ranking by inhibition of cell proliferation, BC model [2]: top ten
rescue activity in the fly model, in words (ptc>dRet^M955T flies): exceptional in vivo activity
rescue (percent viability of adult flies, adults/pupae×100) (ptc>dRet^M955T flies): 100%

Kd [3]: 100 nM
Structure (SMILES): CNC(=O)c1cc(Oc2ccc(NC(=O)Nc3ccc(C(F)(F)C(F)(F)C(F)(F)C(F)(F)F)cc3)c(F)c2)ccn1 [APS-8-52-2]

Structure (SMILES): CC(C)n1cc(-c2ccc(NC(=O)Nc3cccc(C(F)(F)C(F)(F)F)c3)cc2)c2c(N)ncnc21 [APS-9-3, 1-(4-(4-Amino-7-isopropyl-7H-pyrrolo[2,3-d]pyrimidin-5-yl)phenyl)-3-(3-(perfluoroethyl)phenyl)urea 2,2,2-trifluoroacetate]
ranking by inhibition of cell proliferation, AKSP model (AKSP CRC tumoroid line): top ten

Structure (SMILES): CC(C)n1cc(-c2ccc(NC(=O)Nc3cccc(C(F)(C(F)(F)F)C(F)(F)C(F)(F)F)c3)cc2)c2c(N)ncnc21 (stereo not drawn) [APS-8-56-4, 1-(4-(4-Amino-7-isopropyl-7H-pyrrolo[2,3-d]pyrimidin-5-yl)phenyl)-3-(3-(perfluorobutan-2-yl)phenyl)urea]
ranking by inhibition of cell proliferation, AKSP model (AKSP CRC tumoroid line): top ten

Structure (SMILES): CC(C)n1cc(-c2ccc(NC(=O)Nc3cccc(C(F)(F)F)c3)cc2)c2c(N)ncnc21 [APS-9-2, 1-(4-(4-Amino-7-isopropyl-7H-pyrrolo[2,3-d]pyrimidin-5-yl)phenyl)-3-(3-(trifluoromethyl)phenyl)urea]
ranking by inhibition of cell proliferation, AKSP model (AKSP CRC tumoroid line): top ten

Structure (SMILES): CC(C)n1cc(-c2ccc(NC(=O)Nc3ccc(C(F)(F)C(F)(F)F)cc3)cc2)c2c(N)ncnc21 [APS-8-100-4, 1-(4-(4-Amino-7-isopropyl-7H-pyrrolo[2,3-d]pyrimidin-5-yl)phenyl)-3-(4-(perfluoroethyl)phenyl)urea]
ranking by inhibition of cell proliferation, SR model [1]: top ten
cellular IC50 against RET, ranking in words (RET (WT and M918T)): lowest IC50 values among the para-substituted compounds tested
ranking by inhibition of cell proliferation, BC model [2]: top ten
rescue activity in the fly model, in words (ptc>dRet^M955T flies): exceptional in vivo activity
rescue (percent viability of adult flies, adults/pupae×100) (ptc>dRet^M955T flies): 100%

Structure (SMILES): CC(C)n1cc(-c2ccc(NC(=O)Nc3cc(C(F)(F)F)ccc3F)cc2)c2c(N)ncnc21 [APS-6-87, 1-(4-(4-Amino-7-isopropyl-7H-pyrrolo[2,3-d]pyrimidin-5-yl)phenyl)-3-(2-fluoro-5-(trifluoromethyl)phenyl)urea]
ranking by inhibition of cell proliferation, AKSP model (AKSP CRC tumoroid line): top ten

Structure (SMILES): CNC(=O)c1cc(Oc2ccc(NC(=O)Nc3ccc(C(F)(C(F)(F)F)C(F)(F)C(F)(F)F)cc3)c(F)c2)ccn1 (stereo not drawn) [APS-8-82-1]
rescue (percent viability of adult flies, adults/pupae×100) (ptc>dRet^M955T flies): 85%
binding to wild-type RET and RET^M918T, in words [4]: selective for mutant RET^M918T
binding to wild-type RET and RET^M918T, in words ([4]; listed as 8-82-1): selectivity for the M918T mutant over wild-type
binding profile / selectivity across the kinome, in words ([4]; panel of 468 kinases): highly selective across the kinome
number of kinases bound with >80% efficacy ([4]; panel of 468 kinases): 7
Kd [3]: 110 nM

cellular IC50 against RET, ranking in words (RET (WT and M918T)): highest IC50 values
Structure (SMILES): CC(C)n1nc(-c2ccc(NC(=O)Nc3cc(C(F)(C(F)(F)F)C(F)(F)C(F)(F)F)ccc3F)cc2)c2c(N)ncnc21 (stereo not drawn) [APS-8-35-3, 1-(4-(4-Amino-1-isopropyl-1H-pyrazolo[3,4-d]pyrimidin-3-yl)phenyl)-3-(2-fluoro-5-(perfluorobutan-2-yl)phenyl)urea]
ranking by inhibition of cell proliferation, AKSP model (AKSP CRC tumoroid line): top ten

Structure (SMILES): CC(C)n1nc(-c2ccc(NC(=O)Nc3ccc(C(F)(F)C(F)(F)C(F)(F)F)cc3)cc2)c2c(N)ncnc21 [APS-8-51-3, 1-(4-(4-Amino-1-isopropyl-1H-pyrazolo[3,4-d]pyrimidin-3-yl)phenyl)-3-(4-(perfluoropropyl)phenyl)urea]
ranking by inhibition of cell proliferation, SR model [1]: top ten
ranking by inhibition of cell proliferation, BC model [2]: top ten
ranking by inhibition of cell proliferation, AKSP model (AKSP CRC tumoroid line): top ten

Structure (SMILES): CC(C)n1cc(-c2ccc(NC(=O)Nc3ccc(C(F)(F)F)cc3)cc2)c2c(N)ncnc21 [APS-8-85-2, 1-(4-(4-Amino-7-isopropyl-7H-pyrrolo[2,3-d]pyrimidin-5-yl)phenyl)-3-(4-(trifluoromethyl)phenyl)urea]
ranking by inhibition of cell proliferation, AKSP model (AKSP CRC tumoroid line): top ten

From patent US20240287081A1, “PERFLUOROALKANE SUBSTITUTED PYRAZOLO[3,4-D]PYRIMIDIN AND PYRROLO[2,3-D]PYRIMIDIN COMPOUNDS AND USES THEREOF” (ICAHN SCHOOL OF MEDICINE AT MOUNT SINAI, priority 2021, published 2024)
